From patent US12617797B2, “Substituted pyrazolo [1,5-a]pyrimidines having multimodal activity against pain” (ESTEVE PHARMACEUTICALS, S.A., priority 2020, dated 2026)

What was measured:
[1] = biological target: Human α2δ-1 subunit of Cav2.2 calcium channel (Homo sapiens, UniProt P54289); experiment: Human α2δ-1 subunit of Cav2.2 calcium channel assay ([3H]-gabapentin binding); details: binding to the α2δ-1 subunit of voltage-gated calcium channels expressed as Ki; + also covers inhibition between 1% and 50%
Human α2δ-1 subunit of Cav2.2 calcium channel, sequence (P54289 25-1103): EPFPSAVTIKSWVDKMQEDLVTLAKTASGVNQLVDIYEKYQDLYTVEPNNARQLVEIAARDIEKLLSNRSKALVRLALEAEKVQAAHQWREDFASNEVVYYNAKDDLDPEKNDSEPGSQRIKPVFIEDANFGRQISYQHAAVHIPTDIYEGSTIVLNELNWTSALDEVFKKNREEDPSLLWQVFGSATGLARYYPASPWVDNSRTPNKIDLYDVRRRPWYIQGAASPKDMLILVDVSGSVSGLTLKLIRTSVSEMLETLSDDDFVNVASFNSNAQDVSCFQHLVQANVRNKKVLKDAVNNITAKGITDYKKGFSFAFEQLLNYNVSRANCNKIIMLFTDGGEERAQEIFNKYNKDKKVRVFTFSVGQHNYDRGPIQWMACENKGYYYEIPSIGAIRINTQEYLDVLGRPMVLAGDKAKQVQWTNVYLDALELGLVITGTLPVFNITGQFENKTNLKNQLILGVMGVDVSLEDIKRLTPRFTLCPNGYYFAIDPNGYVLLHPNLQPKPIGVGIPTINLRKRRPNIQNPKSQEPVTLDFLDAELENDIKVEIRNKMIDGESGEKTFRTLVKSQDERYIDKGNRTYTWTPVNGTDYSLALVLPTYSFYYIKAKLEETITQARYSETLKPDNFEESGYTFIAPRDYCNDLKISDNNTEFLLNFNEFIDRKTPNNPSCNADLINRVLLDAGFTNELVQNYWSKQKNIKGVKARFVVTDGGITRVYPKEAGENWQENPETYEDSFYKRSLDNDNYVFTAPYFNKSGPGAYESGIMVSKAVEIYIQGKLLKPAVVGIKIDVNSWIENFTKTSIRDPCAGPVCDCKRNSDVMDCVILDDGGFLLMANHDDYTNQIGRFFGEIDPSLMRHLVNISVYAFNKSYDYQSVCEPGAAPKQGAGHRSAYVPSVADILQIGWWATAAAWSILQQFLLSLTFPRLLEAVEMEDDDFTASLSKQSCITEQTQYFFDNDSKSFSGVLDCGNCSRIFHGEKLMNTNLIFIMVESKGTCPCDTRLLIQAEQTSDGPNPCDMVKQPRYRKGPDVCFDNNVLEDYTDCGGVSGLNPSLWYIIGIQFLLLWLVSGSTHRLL
In short: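 Displacement of 15 nM [3H]-gabapentin from human α2δ-1-enriched membranes (Hepes-KOH 10 mM, pH 7.4; 27 °C, 60 min) read by filter binding and radioactivity counting. Values are single-point % inhibition (1 or 10 μM) or five-point Ki; 10 μM pregabalin sets NSB.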

Human σ1 receptor = biological target: T1, Human σ1 receptor (Homo sapiens, UniProt Q99720); experiment: Human σ1 receptor radioligand assay ([3H](+)-pentazocine binding, transfected HEK-293 membranes); details: binding to σ1 receptor expressed as Ki; + also covers inhibition between 1% and 50%; read-out: σ-1 binding
T1 construct: expressed in transfected cells; host or cells: HEK-293
T1 sequence (Q99720 whole entry): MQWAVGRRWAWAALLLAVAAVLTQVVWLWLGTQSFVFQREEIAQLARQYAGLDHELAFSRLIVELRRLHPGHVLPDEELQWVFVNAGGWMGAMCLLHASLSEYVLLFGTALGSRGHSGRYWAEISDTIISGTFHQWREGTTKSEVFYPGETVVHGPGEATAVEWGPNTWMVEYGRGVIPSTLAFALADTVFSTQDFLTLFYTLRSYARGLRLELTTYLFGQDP
In short: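 Ki was derived from five test concentrations, or % inhibition was measured at a single 1 or 10 μM dose, against 5 nM [3H](+)-pentazocine. Incubation was 120 min at 37° C in 50 mM Tris-HCl pH 8 with 7 μg HEK-293 membranes, and 10 μM haloperidol set non-specific binding. Bound radioactivity was counted after filtration.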

**Q.** Which Ki [1] does the source give for `Cc1nn2c(C3CCCN(Cc4ccc(Cl)cc4)C3)ccnc2c1CN1CCOCC1` (stereo not shown) [Example 165, 4-((7-(1-(4-Chlorobenzyl)piperidin-3-yl)-2-methylpyrazolo[1,5-a]pyrimidin-3-yl)methyl)morpholine] here?
**A.** Its Ki is greater than 5000 nM.

**Q.** What about the Ki (Human σ1 receptor) of the same molecule?
**A.** The Ki was 500 to 1000 nM.

**Q.** With `Cc1nn2c(C3CCCN(Cc4ccc(Cl)cc4)C3)ccnc2c1CNCCN1CCOCC1` (stereo not shown) [Example 166, N-((7-(1-(4-Chlorobenzyl)piperidin-3-yl)-2-methylpyrazolo[1,5-a]pyrimidin-3-yl)methyl)-2-morpholinoethan-1-amine] as the molecule, how does the Ki [1] read?
**A.** Its Ki is 500 to 5000 nM.

**Q.** What about the Ki (Human σ1 receptor) of the same molecule?
**A.** Its Ki is less than 500 nM.

**Q.** What does the source list for `Cc1nn2c(C3CCCN(Cc4ccc(Cl)cc4)C3)ccnc2c1CN1CCSCC1` (stereo not shown) [Example 167, 4-((7-(1-(4-Chlorobenzyl)piperidin-3-yl)-2-methylpyrazolo[1,5-a]pyrimidin-3-yl)methyl)thiomorpholine]?
**A.** Ki [1]: 500 to 5000 nM; Ki (Human σ1 receptor): < 500 nM

**Q.** Which Ki [1] does the source give for `Cc1nn2c(C3CCCN(Cc4ccc(Cl)cc4)C3)ccnc2c1CN1CCS(=O)(=O)CC1` (stereo not shown) [Example 168, 4-((7-(1-(4-Chlorobenzyl)piperidin-3-yl)-2-methylpyrazolo[1,5-a]pyrimidin-3-yl)methyl)thiomorpholine 1,1-dioxide] here?
**A.** Its Ki is 500 to 5000 nM.

**Q.** And the Ki (Human σ1 receptor)?
**A.** The Ki was 500 to 1000 nM.

**Q.** What does the source list for `Cc1nn2c(C3CCCN(Cc4ccc(Cl)cc4)C3)ccnc2c1CN1CCCCC1` (stereo not shown) [Example 169, 7-(1-(4-Chlorobenzyl)piperidin-3-yl)-2-methyl-3-(piperidin-1-ylmethyl)pyrazolo[1,5-a]pyrimidine]?
**A.** Ki [1]: 500 to 5000 nM; Ki (Human σ1 receptor): < 500 nM

**Q.** For `COCC1CCN(Cc2c(C)nn3c(C4CCCN(Cc5ccc(Cl)cc5)C4)ccnc23)CC1` (stereo not shown) [Example 170, 7-(1-(4-Chlorobenzyl)piperidin-3-yl)-3-((4-(methoxymethyl)piperidin-1-yl)methyl)-2-methylpyrazolo[1,5-a]pyrimidine], which Ki [1] is on record?
**A.** The Ki was less than 500 nM.

**Q.** What about the Ki (Human σ1 receptor) of the same molecule?
**A.** The Ki was less than 500 nM.

**Q.** What does the source list for `Cc1nn2c(C3CCCN(Cc4ccc(Cl)cc4)C3)ccnc2c1CN1CCC(C(N)=O)CC1` (stereo not shown) [Example 171, 1-((7-(1-(4-Chlorobenzyl)piperidin-3-yl)-2-methylpyrazolo[1,5-a]pyrimidin-3-yl)methyl)piperidine-4-carboxamide]?
**A.** Ki [1]: 500 to 5000 nM; Ki (Human σ1 receptor): < 500 nM

**Q.** For `Cc1nn2c(C3CCCN(Cc4ccc(Cl)cc4)C3)ccnc2c1CN1CCC(C#N)CC1` (stereo not shown) [Example 172, 1-((7-(1-(4-Chlorobenzyl)piperidin-3-yl)-2-methylpyrazolo[1,5-a]pyrimidin-3-yl)methyl)piperidine-4-carbonitrile], which Ki [1] is on record?
**A.** The Ki was greater than 5000 nM.

**Q.** What about the Ki (Human σ1 receptor) of the same molecule?
**A.** Its Ki is less than 500 nM.

**Q.** How did the Ki [1] turn out when `Cc1nn2c(C3CCCN(Cc4ccc(Cl)cc4)C3)ccnc2c1CN1CCNC(=O)C1` (stereo not shown) [Example 173] was run?
**A.** The Ki was greater than 5000 nM.

**Q.** And the Ki (Human σ1 receptor)?
**A.** Its Ki is greater than 1000 nM.

**Q.** How did the Ki [1] turn out when `CC(=O)N1CCN(Cc2c(C)nn3c(C4CCCN(Cc5ccc(Cl)cc5)C4)ccnc23)CC1` (stereo not shown) [Example 174, 1-(4-((7-(1-(4-Chlorobenzyl)piperidin-3-yl)-2-methylpyrazolo[1,5-a]pyrimidin-3-yl)methyl)piperazin-1-yl)ethan-1-one] was run?
**A.** Its Ki is 500 to 5000 nM.

**Q.** What about the Ki (Human σ1 receptor) of the same molecule?
**A.** The Ki was greater than 1000 nM.

**Q.** `Cc1nn2c(C3CCCN(Cc4ccc(Cl)cc4)C3)ccnc2c1CN1CCN(S(C)(=O)=O)CC1` (stereo not shown) [Example 175, 7-(1-(4-Chlorobenzyl)piperidin-3-yl)-2-methyl-3-((4-(methylsulfonyl)piperazin-1-yl)methyl)pyrazolo[1,5-a]pyrimidine] was tested. Which Ki [1] did it give?
**A.** The Ki was greater than 5000 nM.

**Q.** And the Ki (Human σ1 receptor)?
**A.** Its Ki is greater than 1000 nM.

**Q.** What does the source list for `Cc1nn2c(C3CCCN(Cc4ccc(Cl)cc4)C3)ccnc2c1CNCCCN1CCCC1=O` (stereo not shown) [Example 176, 1-(3-(((7-(1-(4-Chlorobenzyl)piperidin-3-yl)-2-methylpyrazolo[1,5-a]pyrimidin-3-yl)methyl)amino)propyl)pyrrolidin-2-one]?
**A.** Ki [1]: 500 to 5000 nM; Ki (Human σ1 receptor): > 1000 nM

**Q.** `Cc1nn2c(C3CCCN(Cc4ccc(Cl)cc4)C3)ccnc2c1CNCC1(F)CCOCC1` (stereo not shown) [Example 177, 1-(7-(1-(4-Chlorobenzyl)piperidin-3-yl)-2-methylpyrazolo[1,5-a]pyrimidin-3-yl)-N-((4-fluorotetrahydro-2H-pyran-4-yl)methyl)methanamine] was tested. Which Ki [1] did it give?
**A.** The Ki was 500 to 5000 nM.

**Q.** What about the Ki (Human σ1 receptor) of the same molecule?
**A.** Its Ki is less than 500 nM.

**Q.** Which results are given for `Cc1nn2c(C3CCCN(Cc4ccc(Cl)cc4)C3)ccnc2c1CNCCC1CCOCC1` (stereo not shown) [Example 178, N-((7-(1-(4-Chlorobenzyl)piperidin-3-yl)-2-methylpyrazolo[1,5-a]pyrimidin-3-yl)methyl)-2-(tetrahydro-2H-pyran-4-yl)ethan-1-amine]?
**A.** Ki [1]: 500 to 5000 nM; Ki (Human σ1 receptor): < 500 nM

**Q.** What does the source list for `Cc1nn2c(C3CCCN(Cc4ccc(Cl)cc4)C3)ccnc2c1CNCC1CCN(S(C)(=O)=O)CC1` (stereo not shown) [Example 179, 1-(7-(1-(4-Chlorobenzyl)piperidin-3-yl)-2-methylpyrazolo[1,5-a]pyrimidin-3-yl)-N-((1-(methylsulfonyl)piperidin-4-yl)methyl)methanamine]?
**A.** Ki [1]: 500 to 5000 nM; Ki (Human σ1 receptor): 500 to 1000 nM

**Q.** How did the Ki [1] turn out when `CC(=O)N1CCC(CNCc2c(C)nn3c(C4CCCN(Cc5ccccc5)C4)ccnc23)CC1` (stereo not shown) [Example 180, 1-(4-((((7-(1-Benzylpiperidin-3-yl)-2-methylpyrazolo[1,5-a]pyrimidin-3-yl)methyl)amino)methyl)piperidin-1-yl)ethan-1-one] was run?
**A.** Its Ki is 500 to 5000 nM.

**Q.** And the Ki (Human σ1 receptor)?
**A.** Its Ki is less than 500 nM.

**Q.** What does the source list for `Cc1nn2c(C3CCCN(Cc4cccc(F)c4)C3)ccnc2c1CNCC1CCOCC1` (stereo not shown) [Example 181, 1-(7-(1-(3-Fluorobenzyl)piperidin-3-yl)-2-methylpyrazolo[1,5-a]pyrimidin-3-yl)-N-((tetrahydro-2H-pyran-4-yl)methyl)methanamine]?
**A.** Ki [1]: 500 to 5000 nM; Ki (Human σ1 receptor): < 500 nM

**Q.** With `Cc1nn2c(C3CCCN(Cc4ccc(F)c(F)c4)C3)ccnc2c1CNCC1CCOCC1` (stereo not shown) [Example 182, 1-(7-(1-(3,4-Difluorobenzyl)piperidin-3-yl)-2-methylpyrazolo[1,5-a]pyrimidin-3-yl)-N-((tetrahydro-2H-pyran-4-yl)methyl)methanamine] as the molecule, how does the Ki [1] read?
**A.** The Ki was less than 500 nM.

**Q.** What about the Ki (Human σ1 receptor) of the same molecule?
**A.** Its Ki is less than 500 nM.

**Q.** What does the source list for `Cc1nn2c(C3CCCN(Cc4ccc(C#N)cc4)C3)ccnc2c1CNCC1CCOCC1` (stereo not shown) [Example 183, 4-((3-(2-Methyl-3-((((tetrahydro-2H-pyran-4-yl)methyl)amino)methyl)pyrazolo[1,5-a]pyrimidin-7-yl)piperidin-1-yl)methyl)benzonitrile]?
**A.** Ki [1]: > 5000 nM; Ki (Human σ1 receptor): < 500 nM

**Q.** Which results are given for `Cc1nn2c(C3CCCN(Cc4ccc(C(F)(F)F)nc4)C3)ccnc2c1CNCC1CCOCC1` (stereo not shown) [Example 184, 1-(2-Methyl-7-(1-((6-(trifluoromethyl)pyridin-3-yl)methyl)piperidin-3-yl)pyrazolo[1,5-a]pyrimidin-3-yl)-N-((tetrahydro-2H-pyran-4-yl)methyl)methanamine]?
**A.** Ki [1]: > 5000 nM; Ki (Human σ1 receptor): < 500 nM

**Q.** For `Cc1nn2c(C3CCCN(CC4CCOCC4)C3)ccnc2c1CNCC1CCOCC1` (stereo not shown) [Example 185, 1-(2-Methyl-7-(1-((tetrahydro-2H-pyran-4-yl)methyl)piperidin-3-yl)pyrazolo[1,5-a]pyrimidin-3-yl)-N-((tetrahydro-2H-pyran-4-yl)methyl)methanamine], which Ki [1] is on record?
**A.** The Ki was greater than 5000 nM.

**Q.** And the Ki (Human σ1 receptor)?
**A.** The Ki was greater than 1000 nM.

**Q.** `Cc1nn2c(C3CCCN(Cc4ccc(Cl)cc4Cl)C3)ccnc2c1CN(C)C` (stereo not shown) [Example 186, 1-(7-(1-(2,4-Dichlorobenzyl)piperidin-3-yl)-2-methylpyrazolo[1,5-a]pyrimidin-3-yl)-N,N-dimethylmethanamine] was tested. Which Ki [1] did it give?
**A.** Its Ki is greater than 5000 nM.

**Q.** And the Ki (Human σ1 receptor)?
**A.** Its Ki is less than 500 nM.

**Q.** For `CCc1nn2c(C3CCCN(Cc4ccc(Cl)cc4)C3)ccnc2c1CNCC1CCOCC1` (stereo not shown) [Example 187, 1-(7-(1-(4-Chlorobenzyl)piperidin-3-yl)-2-ethylpyrazolo[1,5-a]pyrimidin-3-yl)-N-((tetrahydro-2H-pyran-4-yl)methyl)methanamine], which Ki [1] is on record?
**A.** The Ki was less than 500 nM.

**Q.** What about the Ki (Human σ1 receptor) of the same molecule?
**A.** Its Ki is less than 500 nM.
